According to US20140065706A1, “MATERIALS AND METHODS FOR MOBILIZING CELLS INCLUDING CD34+, HEMATOPOIETIC COLONY FORMING, AND ENDOTHELIAL COLONY FORMING CELLS” (Indiana University Research and Technology Corp., priority 2010, published 2014):

Tests used:
[1] = system: circulating endothelial colony forming cells (ECFC); experiment: Circulating endothelial colony forming cells (ECFC) in human volunteers before and after meloxicam; assay type: in vivo; settings: post 5 day regimen; before treatment only 4/7 had detectable ECFC
Protocol: For analysis of circulating ECFC, PB mononuclear cells were plated in media at 37° C., 5% CO2, 5% O2 in 6 well culture plates coated with type 1 collagen. Media was be replaced every other day for 7-14 days at which time the adherent colonies of endothelial cells (EC) are removed with Trypsin and replated in collagen coated culture wells at a single cell per well. After 14 days each well is visually examined to determine whether there are 2 or more cells per well and if so, the total number of EC counted.

[2] = system: progenitors from the bone marrow; experiment: Mobilization of progenitors from the bone marrow (NSAID comparison); settings: in vivo

SMILES	volunteers with detectable ECFC in 40 mL of blood post treatment [1]	ability to mobilize progenitors from the bone marrow [2]
Cc1cnc(NC(=O)C2=C(O)c3ccccc3S(=O)(=O)N2C)s1 [Meloxicam, meloxicam]	7/7	–
CC(=O)Oc1ccccc1C(=O)O [aspirin]	–	highly effective
Cc1onc(-c2ccccc2)c1-c1ccc(S(N)(=O)=O)cc1 [valdecoxib]	–	unable to mobilize
